{"source": "patent US8455440B2", "about": "“Combination anticoagulant therapy with a compound that acts as a factor Xa inhibitor” (Millennium Pharmaceuticals, Inc., priority 2007, dated 2013)", "key": {"[1]": {"system": "Interleukin 8", "test": "Ex vivo cytokine release in human whole blood: interleukin 8", "format": "cell-based", "conditions": "ASA treated donors, no Compound A (Control = 100.0)", "protocol": "An ex vivo assay system of human cytokine release was used to test whether inhibition of factor Xa should augment the effect of reduction of inflammation elicited by standard anti-inflammatory drugs, such as aspirin.\nAt the end of the activation period, blood samples were centrifuged at 13,000 rpm (15,000 g) for 5 min in an Eppendorf 5415G centrifuge. Plasma was removed, treated with protease inhibitor cocktail (Roche) and stored frozen at −80° C. Cytokines released from the blood cells were quantitated in a Multiplexed Biomarker Immunoassay for Luminex Instrumentation (Millipore USA)."}, "[2]": {"system": "clotting times (prothrombin time, PT and activated partial thromboplastin times, aPTT)", "test": "Ex vivo clotting times (PT, aPTT) in the rat thrombosis model", "conditions": "Compound A 0.03 μM, aspirin 3 mg/kg, or both", "description": "(§1) In this experiment, the ability of Compound A to maintain vessel patency under arterial flow conditions in ferric chloride induced thrombosis in rat carotid artery is compared to that achieved by clopidogrel. Compound A was administered by intravenous infusions and clopidogrel was dosed orally for three days. Ex vivo platelet aggregation induced by 10 μM ADP and clotting times (prothrombin time, PT and activated partial thromboplastin times, aPTT) were measured over the experimental time course (90 min) in all animals.\nas §1, with “The combination effect of an anticoagulant and anti-platelet agent, aspirin, was investigated in an in vivo model of thrombosis. […] In” for “In”, “aspirin.” for “clopidogrel.”, “aspirin” for “clopidogrel”, “administered as an intravenous bolus approximately 30 min prior to the start of the experiment.” for “dosed orally for three days.”, “μg/mL of collagen” for “μM ADP”"}, "[3]": {"system": "thrombin generation", "test": "Thrombin generation assay in platelet rich plasma (PRP)", "format": "biochemical, human", "conditions": "ASA donors (aspirin for at least three days), 0 nM Compound A; normalized to Non-ASA at 0 nM", "description": "PRP and PPP were prepared by spinning the anticoagulated blood at ˜100×g or 1000×g for 20 minutes, respectively, at room temperature. Platelet counts in PRP were adjusted with homologous PPP to about 200,000 platelets/μL. For thrombin generation in 100 μL reaction mixture, 75 μL PRP was first mixed with CaCl2, convulxin, and Z-Gly-Gly-Arg-aminomethylcoumarin (Z-GGR-AMC, a thrombin fluorogenic substrate) for 3 minutes at 37° C., followed by adding tissue factor (Innovin, Dade Behring) to initiate the generation of thrombin. A typical reaction mixture contained 15 mM Ca^2+, 0.1 μg/mL convulxin, 100 μM Z-GGR-AMC, and 0.1 nM TF (tissue factor) (Innovin). Thrombin formation was monitored continuously at 37° C. by a fluorometric plate reader (Molecular Devices) measuring the relative fluorescence units (RFU). Inhibitors were pre-incubated with plasma for 20 minutes at room temperature before adding CaCl2 and convulxin.\nNon-ASA represents result from donors free of aspirin. ASA represents results from donors taken aspirin for at least three days. % Inhibition was calculated by normalization of mean RFU (n=5) to Non-ASA at 0 nM Compound A."}, "[4]": {"system": "collagen induced platelet aggregation", "test": "Ex vivo platelet aggregation induced by 10 μg/mL of collagen", "format": "in vivo", "conditions": "Rattus norvegicus", "description": "The combination effect of an anticoagulant and anti-platelet agent, aspirin, was investigated in an in vivo model of thrombosis. […] Ex vivo platelet aggregation induced by 10 μg/mL of collagen and clotting times (prothrombin time, PT and activated partial thromboplastin times, aPTT) were measured over the experimental time course (90 min) in all animals."}, "[5]": {"system": "ferric chloride induced thrombosis in rat carotid artery", "test": "Ferric chloride induced thrombosis in rat carotid artery", "format": "in vivo"}, "[6]": {"system": "systolic and diastolic blood pressure", "test": "Telemetry blood pressure in conscious beagle dogs, three way crossover", "format": "in vivo", "description": "The study design was a three way crossover with one week between doses to ensure complete elimination of residual agents from the dogs' circulatory system. […] Data acquisition and analysis was performed using LDS Life Science Suite Ponemah P3 plus V 4.20 software with results reported as 10 minute averages for each animal.\nAUC was derived from the systolic and diastolic baseline. […] Negative values represent a decrease in blood pressure relative to the baseline value."}, "[7]": {"system": "human whole blood", "test": "Real time perfusion chamber: whole blood perfused over collagen and tissue factor coated surface", "format": "cell-based", "conditions": "2.4 μM eptifibatide alone (0 nM Compound A), shear rate 300 s^−1, five donors", "description": "After the perfusion, the thrombotic activity was quantified by measurement of labeled fibrin produced as a result of fibrinogen cleavage during the activation of platelets and the blood coagulation system. For this series of experiments in five healthy human volunteers, blood was obtained by venipuncture and treated with 2.4 μM eptifibatide. The dose of eptifibatide corresponds to the plasma concentration attained by therapeutic concentrations of the GPIIb/IIIa inhibitor."}, "[8]": {"system": "venous thromboembolism (VTE)", "test": "Prospective randomized trial for prevention of venous thromboembolic events after total knee replacement", "conditions": "Enoxaparin 30 mg bid subcutaneous, 10-14 days, n = 41", "quoted_text": "Safety endpoints included the incidence of major and clinically significant nonmajor bleeds through the day after venography. All efficacy and bleeding endpoints were adjudicated by a blinded, independent central adjudication committee."}, "[9]": {"system": "pooled human plasma", "test": "Ex vivo clotting assays (aPTT) in pooled human plasma", "format": "biochemical", "conditions": "0.5 U/mL enoxaparin"}, "[10]": {"system": "ADP induced platelet aggregation", "test": "Ex vivo platelet aggregation induced by 10 μM ADP", "format": "in vivo", "conditions": "Rattus norvegicus, po, 72 h, clopidogrel 1 mg/kg, dosed orally for three days, read-out: inhibition of ADP induced platelet aggregation in platelet rich plasma", "description": "as §1\nThis level of platelet inhibition is approximately equivalent to that attained by clopidogrel's effect on human platelets at the therapeutic dose in clinical use (75 mg per day). […] Time to occlusion was measured in animals that had vessel occlusion."}, "[11]": {"conditions": "Dog # 1, oral, Compound A 3 mg/kg, verapamil 10 mg/kg"}, "[12]": {"conditions": "Dog # 2, oral, Compound A 3 mg/kg, verapamil 10 mg/kg"}, "[13]": {"conditions": "Dog # 3, oral, Compound A 3 mg/kg, verapamil 10 mg/kg"}, "[14]": {"conditions": "following verapamil or placebo administration ([…]), relative to baseline"}, "[15]": {"conditions": "three dogs, oral, Compound A 3 mg/kg, verapamil 10 mg/kg"}}, "note": "Positions of bridges follow the written chain, without caps; N, C: chain ends. Non-standard residues stand in square brackets, D forms with d. Residues, ends and D or L forms follow the SMILES beside them. hArg = N=C(N)NCCCC[C@H](N)C(=O)O; Mpa = O=C(O)CCS", "data": [{"molecule": "CC(=O)Oc1ccccc1C(=O)O", "note": "[aspirin, acetylsalicylic acid, reference compound]", "values": [{"measurement": "Percent Release of IL8", "setting": "[1]", "value": 66.7, "unit": "%"}, {"measurement": "APTT Ratio", "setting": "[2]", "value": 1.02}, {"measurement": "PT ratio", "setting": "[2]", "value": 1.01}, {"measurement": "% Inhibition of thrombin generation", "setting": "[3]", "value": 21.5, "unit": "%"}, {"measurement": "inhibition at 1 mg/kg", "setting": "[4]; aspirin 1.0 mg/kg iv bolus", "value": "< 2", "unit": "%"}, {"measurement": "inhibition at 3 mg/kg", "setting": "[4]; aspirin 3 mg/kg iv bolus, read-out: inhibition of collagen induced platelet aggregation in platelet rich plasma", "value": 35, "unit": "%"}, {"measurement": "inhibition at 10 mg/kg", "setting": "[4]; aspirin 10 mg/kg iv bolus", "value": 77, "unit": "%"}, {"measurement": "% DNO (inhibition of rat thrombosis)", "setting": "[5]; Compound A 0.03 μM iv infusion, aspirin 3 mg/kg iv bolus, or both", "value": 30, "unit": "%"}, {"measurement": "animals that did not occlude", "setting": "[5]; aspirin 1.0 mg/kg iv bolus", "value": 10, "unit": "%"}, {"measurement": "inhibition of rat thrombosis (animals that did not occlude)", "setting": "[5]; aspirin 10 mg/kg iv bolus", "value": 33.3, "unit": "%"}, {"measurement": "TTO (Time to occlusion)", "setting": "[5]; average for animals that occluded, Compound A 0.03 μM, aspirin 3 mg/kg, or both", "value": "31.61 ± 10.91", "unit": "min"}, {"measurement": "DNO (did not occlude)", "setting": "[5]; number of 10 animals, Compound A 0.03 μM iv infusion, aspirin 3 mg/kg iv bolus, or both", "value": 3}]}, {"molecule": "COc1ccc(CCN(C)CCCC(C#N)(c2ccc(OC)c(OC)c2)C(C)C)cc1OC", "note": "(stereo not drawn) [Verapamil, reference compound]", "values": [{"measurement": "Lowest Diastolic Blood Pressure Post-Dosing", "setting": "[6]; [11]", "value": 65.11, "unit": "mmHg"}, {"measurement": "Lowest Systolic Blood Pressure Post-Dosing", "setting": "[6]; [11]", "value": 137.18, "unit": "mmHg"}, {"measurement": "Lowest Diastolic Blood Pressure Post-Dosing", "setting": "[6]; [12]", "value": 62.47, "unit": "mmHg"}, {"measurement": "Lowest Systolic Blood Pressure Post-Dosing", "setting": "[6]; [12]", "value": 111.90, "unit": "mmHg"}, {"measurement": "Lowest Diastolic Blood Pressure Post-Dosing", "setting": "[6]; [13]", "value": 51.94, "unit": "mmHg"}, {"measurement": "Lowest Systolic Blood Pressure Post-Dosing", "setting": "[6]; [13]", "value": 95.52, "unit": "mmHg"}, {"measurement": "decrease of diastolic blood pressure", "setting": "[6]; Verapamil 10 mg/kg as a single agent, within one hour of oral administration", "value": 33, "unit": "%"}, {"measurement": "Mean Area Under the Curve for Diastolic Pressure (AUCP), Mean ± S.D.", "setting": "[6]; [14]", "value": "−3077.8 ± 1845.51", "unit": "mmHg * min."}, {"measurement": "Mean Area Under the Curve for Systolic Pressure (AUCP), Mean ± S.D.", "setting": "[6]; [14]", "value": "−1133.6 ± 1134.7", "unit": "mmHg * min."}, {"measurement": "Mean Area Under the Curve for Diastolic Pressure (AUCP), Mean ± S.D.", "setting": "[6]; following verapamil or placebo administration ([…]), relative to baseline, listed as verapamil", "value": "−3079±1846", "unit": "mmHg * min."}, {"measurement": "Lowest Diastolic Blood Pressure Post-Dosing, Mean ± S.D.", "setting": "[6]; [15]", "value": "59.84 ± 6.97^1 mmHg"}, {"measurement": "Lowest Systolic Blood Pressure Post-Dosing, Mean ± S.D.", "setting": "[6]; [15]", "value": "114.87 ± 20.99", "unit": "mmHg"}]}, {"molecule": "N=C(N)NCCCC[C@@H]1NC(=O)CCSSC[C@@H](C(N)=O)NC(=O)[C@@H]2CCCN2C(=O)[C@H](Cc2c[nH]c3ccccc23)NC(=O)[C@H](CC(=O)O)NC(=O)CNC1=O", "note": "[eptifibatide, reference compound] ([Mpa][hArg]GDWPC-NH2; disulfide 1-7)", "values": [{"measurement": "Mean Fluorescence", "setting": "[7]", "value": 118.0}]}, {"molecule": "Enoxaparin [reference compound]", "values": [{"measurement": "VTE %", "setting": "[8]", "value": 10, "unit": "%"}, {"measurement": "activated partial thromboplastin time (aPTT)", "setting": "[9]", "value": 55, "unit": "s"}]}, {"molecule": "COC(=O)[C@H](c1ccccc1Cl)N1CCc2sccc2C1", "note": "[Clopidogrel, reference compound]", "values": [{"measurement": "inhibition at 1 mg/kg", "setting": "[10]", "value": 46, "unit": "%"}, {"measurement": "% Animals that did not occlude", "setting": "[5]; clopidogrel 0.01 mg/kg (sub-therapeutic dose), oral", "value": 10, "unit": "%"}, {"measurement": "inhibition of rat thrombosis (animals that did not occlude)", "setting": "[5]; clopidogrel 1 mg/kg, dosed orally for three days", "value": 89, "unit": "%"}]}]}
